These results are taken from US10947223B2, “Substituted oxazines as beta-secretase inhibitors” (AMGEN INC., priority 2016, dated 2021).

The conditions of series [1]: phase I clinical trials; cited from earlier work.
The test system of series [2] is Aβ peptide. Particulars: sustained and dose-dependent manner; cited from earlier work.
Series [3] deals with pigment epithelium of the rat's eye. Conditions: higher compound dose given for three months; cited from earlier work.
For series [4] the following is noted: repeated doses up to 200 mg, phase I clinical trial; cited from earlier work.
For series [5], the system named is Aβ peptide. Conditions: nonhuman primates; cited from earlier work.
For series [6] the following is noted: in vivo; cited from earlier work.
Series [7] concerns Aβ peptide. Particulars: oral dose of 95 mg once daily; cited from earlier work.
Another series has as its target Recombinant CatD (Homo sapiens (Human), UniProt P07339). In words: In vitro enzymatic Cathepsin D (CatD) FRET assay. The format is biochemical. Particulars: pH 3.5, read-out: CatD Enzyme IC50. As for the experimental part:
In Vitro Enzymatic Cathepsin D (CatD) FRET Assay
Recombinant CatD was expressed in CHO cells. The assay buffer for CatD was 0.05 M citrate pH 3.5, 10% DMSO final, 5 mM CHAPS. The CatD enzyme (9 nM) was pre-incubated for one hour with inhibitors, typically in about 1 uL of DMSO according to a serial dilution, is added thereto. The assays was effectively started by the addition of different FRET substrates (20 nM for CatD) and the combination was incubated for one hour. The FRET assay was terminated with by addition of tris buffer, which raises the pH to neutrality, and the fluorescence was determined. The FRET substrate was a peptide with commercially available fluorophore and quencher, on opposite sides of the CatD cleavage site. The CatD substrate peptide sequence was based on sequence #1 of Table 1 from Gulnik et al., FEBS Lett. 413(2):379-384 (1997). Proteolytic cleavage of the FRET substrate released quenching of fluorescence (CatD excitation 500 nm and emission 580 nm).
The in vitro CatD FRET assay data for each of the Examples is provided in Table 2, conducted by the first procedure described above. […] Thus, with this surprising selectivity profile, the compounds provided herein are believed to minimize, reduce or completely eliminate any risk of retinal atrophy and abnormal development of the eye and of the retinal pigmented epithelium as it relates to the normal function and activity of CatD.

The target of a further series is human recombinant BACE2 (Homo sapiens (Human), UniProt Q9Y5Z0). Put plainly: In vitro enzymatic BACE2 FRET assay. The class given is biochemical. Particulars: pH 4.5, read-out: BACE2 Enzyme IC50. As for the experimental part: (§1) In Vitro Enzymatic BACE1 and BACE2 FRET (Fluorescence Resonance Energy Transfer) Assays
(§2) The cDNAs for both human recombinant BACE1 and 2 with C-terminal 6-His Tags were cloned into transient protein expression vectors, which were subsequently transfected into mammalian cell lines. These recombinant proteins were further purified using Ni-NTA affinity chromatography (Qiagen). The assay buffer used in these screens was 0.05 M acetate, pH 4.5, 8% DMSO final, 100 μM genapol (which is a nonionic detergent, below its Critical Micelle Concentration). The β-secretase enzyme (0.02 nM for BACE1 and 0.64 nM for BACE2), which was pre-incubated for one hour with the test compound, typically in about 1 uL of DMSO according to a serial dilution, was added thereto. The assay was effectively started by the addition of FRET substrate (50 nM) and the combination was incubated for one hour. The FRET assay was terminated by the addition of tris buffer, which raised the pH to neutrality, and the fluorescence was determined. The FRET substrate was a peptide with commercially available fluorophore and quencher, on opposite sides of the BACE cleavage site. The specific FRET substrate used in this assay was made by Amgen in-house. Commercially available FRET substrates, for example, the FRET substrate offered with the BACE1 FRET Assay Kit sold by ThermoFisher Scientific (Catalog Number P2985), may be used in this assay with the appropriate modifications, which are within the purview of the ability of a person with ordinary skill in the art. Proteolytic cleavage of the FRET substrate released quenching of fluorescence (excitation 488 nm and emission 590 nm).

Series [8] deals with T1, BACE1 (Homo sapiens (Human), UniProt P56817). In words: In vitro BACE1 cell-based assay (Aβ40 in conditioned medium, HTRF). Particulars: Aβ40 in conditioned medium of cells expressing APP, 24 h. On the procedure:
In Vitro BACE1 Cell-Based Assay
The cell-based assay measures inhibition or reduction of Aβ40 in conditioned medium of test compound treated cells expressing amyloid precursor protein. Cells stably expressing Amyloid Precursor Protein (APP) were plated at a density of 45K cells/well in 384 well plates (Corning/BioCoat 354663). The test compounds were then added to cells in 22-point dose response concentrations with the starting concentration being 62.5 μM. The compounds were diluted from stock solutions in DMSO and the final DMSO concentration of the test compounds on cells was 0.625%. The cells were cultivated overnight at 37° C. and 5% CO2 in DMEM supplemented with 10% FBS. After 24 h of incubation with the test compounds, the conditioned media was collected and the Aβ40 levels were determined using HTRF (Homogeneous Time Resolved Fluorescence). The IC50 of the compound was calculated from the percent of control or percent inhibition of Aβ 40 as a function of the concentration of the test compound.
The HTRF to detect Aβ40 was performed in 384 well plates (Costar 3658). The antibody pair that were used to detect Aβ 40 from cell supernatants were ConfAb40 antibody (Amgen in-house) and biotinylated 6E10 (BIOLEGEND). As an alternative to ConfAb40, a commercially available antibody, Anti-beta Amyloid 1-40 antibody [BDI350] from Abcam, Cambridge, Mass. 02139-1517 (Product code: ab20068), may be used in this assay. The concentrations were 0.35 μg/mL of ConfAb40 antibody and 1.33 μg/mL of 6E10-biotinylated antibody, as well as 4.5 μg/mL of Streptavidin Allophycocyanin Conjugate (ThermoFisher Scientific) in HTRF Buffer ([…], 1% BSA, 0.5% Tween 20).
The conditioned media was incubated with above antibodies and Streptavidin Allophycocyanin Conjugate for 30-60 minutes at 23° C. The final readout was performed on Envision from PerkinElmer.
Target sequence in this assay (P56817 46-501, species assumed): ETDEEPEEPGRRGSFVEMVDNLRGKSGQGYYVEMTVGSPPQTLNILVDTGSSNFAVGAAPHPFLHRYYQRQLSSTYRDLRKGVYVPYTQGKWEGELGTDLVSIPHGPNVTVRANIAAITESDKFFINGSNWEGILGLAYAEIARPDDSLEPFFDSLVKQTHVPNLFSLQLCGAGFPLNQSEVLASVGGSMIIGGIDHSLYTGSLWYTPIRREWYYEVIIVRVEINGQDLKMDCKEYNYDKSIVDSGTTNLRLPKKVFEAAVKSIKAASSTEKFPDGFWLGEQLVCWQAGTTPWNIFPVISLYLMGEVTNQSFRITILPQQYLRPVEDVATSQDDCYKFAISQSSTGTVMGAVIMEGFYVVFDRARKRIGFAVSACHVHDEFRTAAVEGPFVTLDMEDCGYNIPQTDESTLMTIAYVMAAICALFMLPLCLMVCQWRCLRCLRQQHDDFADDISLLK
For orientation: In TR-FRET formats the signal depends on donor and acceptor labels being close together.

Series [9] has as its target T1, BACE1. In words: In vitro enzymatic BACE1 FRET assay. The class given is biochemical. Conditions: pH 4.5, read-out: BACE1 Enzyme IC50. On the procedure:
as §1, §2
Target sequence in this assay (P56817 46-501): as the sequence (P56817 46-501, species assumed) above

Sequence of human recombinant BACE2 (Q9Y5Z0 63-518): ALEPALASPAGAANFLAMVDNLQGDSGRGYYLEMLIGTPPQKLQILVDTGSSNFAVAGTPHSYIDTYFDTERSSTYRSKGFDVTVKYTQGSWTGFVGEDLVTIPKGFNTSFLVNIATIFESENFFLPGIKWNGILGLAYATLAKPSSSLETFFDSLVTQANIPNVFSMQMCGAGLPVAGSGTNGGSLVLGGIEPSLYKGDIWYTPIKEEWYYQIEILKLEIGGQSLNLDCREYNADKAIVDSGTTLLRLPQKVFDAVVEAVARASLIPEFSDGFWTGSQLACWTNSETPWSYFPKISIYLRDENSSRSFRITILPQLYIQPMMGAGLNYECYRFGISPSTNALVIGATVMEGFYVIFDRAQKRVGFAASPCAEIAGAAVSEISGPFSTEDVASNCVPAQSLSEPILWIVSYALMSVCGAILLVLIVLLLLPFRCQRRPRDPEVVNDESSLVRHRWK
Sequence of Recombinant CatD (P07339 65-412): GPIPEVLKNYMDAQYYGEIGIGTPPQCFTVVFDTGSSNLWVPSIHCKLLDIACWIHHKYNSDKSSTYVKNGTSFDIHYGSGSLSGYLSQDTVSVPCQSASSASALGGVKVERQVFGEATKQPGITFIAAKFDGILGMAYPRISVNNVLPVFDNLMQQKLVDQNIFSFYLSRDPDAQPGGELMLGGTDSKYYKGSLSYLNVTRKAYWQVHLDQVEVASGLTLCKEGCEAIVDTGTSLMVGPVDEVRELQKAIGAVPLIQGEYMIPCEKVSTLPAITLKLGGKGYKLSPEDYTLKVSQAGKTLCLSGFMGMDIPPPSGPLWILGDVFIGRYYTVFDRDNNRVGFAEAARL

Take `CN1C(=N)N[C@](C)(c2cc(NC(=O)c3ccc(F)cn3)ccc2F)CS1(=O)=O` [MK-8931]: the safety profile entry in series [1] is reported as “excellent safety profile with no immediately noticeable side effects”. Also, the “CSF Aβ peptide concentrations” value in the series on Aβ peptide [2] is “significantly reduced CSF Aβ peptide concentrations”.

Take `C[C@@]1(c2cc(-c3cncnc3)c(F)cc2F)CCSC(N)=N1` [LY 2811376]: in series [3], the eye toxicity finding result is reported as “damaged the pigment epithelium of the rat's eye”.

With `C[C@H]1OC[C@]2(c3cc(NC(=O)c4cnc(C(F)F)cn4)ccc3F)N=C(N)SC[C@H]12` [Example E2609], the clinical safety entry in series [4] was “did not show clinical significant safety concerns”. In addition, in the series on Aβ peptide [5], the “reduction in Aβ peptide levels in the CSF and plasma” value is recorded as “significant reduction”.

As to `C[C@@]1(c2cc(NC(=O)c3ccc(C#N)cn3)ccc2F)C=CSC(N)=N1` [JNJ-54861911], the “ability to cross the blood-brain barrier” value in series [6] is “demonstrated an ability to cross the blood-brain barrier”. Also, the “Aβ peptide reduction in CSF” value in the series with Aβ peptide [7] is reported as “up to 95%”.

Consider `C[C@@]1(c2cc(/C=C(\F)c3ccc(Cl)cn3)ccc2F)CO[C@@](C)(C(F)(F)F)C(N)=N1` [Example 103, (2R,5R)-5-(5-((Z)-2-(5-chloropyridin-2-yl)-2-fluorovinyl)-2-fluorophenyl)-2,5-dimethyl-2-(trifluoromethyl)-5,6-dihydro-2H-1,4-oxazin-3-amine], for which the IC50 (as a rule, the concentration needed to halve the response being measured) was found to be 19200 nM on Recombinant CatD, 17 nM at human recombinant BACE2, 693 nM against BACE1 [8] and 65 nM on BACE1 [9].

Turning to `N#Cc1ccc(/C(F)=C/c2ccc(F)c([C@@]3(C(F)F)N=C(N)O[C@@H]4C[C@@H]43)c2)nc1` [Example 102, 6-((Z)-2-(3-((1R,5S,6R)-3-amino-5-(difluoromethyl)-2-oxa-4-azabicyclo[4.1.0]hept-3-en-5-yl)-4-fluorophenyl)-1-fluorovinyl)nicotinonitrile], the 50% inhibitory concentration (IC50) was 222000 nM on Recombinant CatD, 1620 nM at human recombinant BACE2, 344 nM against BACE1 [8] and 152 nM at BACE1 [9].

With `C[C@]1(c2cc(/C=C(\F)c3cnc(C#N)cn3)ccc2F)N=C(N)OC[C@@H]1OCC(F)(F)F` [Example 112, 5-((Z)-2-(3-((4R,5R)-2-amino-4-methyl-5-(2,2,2-trifluoroethoxy)-5,6-dihydro-4H-1,3-oxazin-4-yl)-4-fluorophenyl)-1-fluorovinyl)pyrazine-2-carbonitrile], the half-maximal inhibitory concentration (IC50) on Recombinant CatD worked out at 970000 nM; at human recombinant BACE2 it was 6360 nM; against BACE1 [8] it was 27 nM; on BACE1 [9] it was 119 nM.

For `NC1=N[C@@](c2cc(/C=C(\F)c3ccc(Br)cn3)ccc2F)(C(F)F)[C@H]2C[C@H]2O1` [Example 100, (1R,5S,6R)-5-(5-((Z)-2-(5-bromopyridin-2-yl)-2-fluorovinyl)-2-fluorophenyl)-5-(difluoromethyl)-2-oxa-4-azabicyclo[4.1.0]hept-3-en-3-amine], the half-maximal inhibitory concentration (IC50) at Recombinant CatD is 63900 nM; at human recombinant BACE2, 564 nM; against BACE1 [8], 948 nM; at BACE1 [9], 257 nM.

Take `C[C@@]1(c2cc(/C=C(\F)c3cnc(Cl)cn3)ccc2F)CO[C@@](C)(C(F)(F)F)C(N)=N1` [Example 108, (2R,5R)-5-(5-((Z)-2-(5-chloropyrazin-2-yl)-2-fluorovinyl)-2-fluorophenyl)-2,5-dimethyl-2-(trifluoromethyl)-5,6-dihydro-2H-1,4-oxazin-3-amine]: the 50% inhibitory concentration (IC50) on Recombinant CatD came out at 39300 nM; at human recombinant BACE2 it was 33 nM; at BACE1 [8], 663 nM; at BACE1 [9], 118 nM.
